One compound from patent publication US20250025439A1, “DERIVATIVES OF NIFUROXAZIDE FOR USE IN THE TREATMENT OF MITOCHONDRIAL DISORDERS AND NEURODEGENERATIVE DISEASES” (priority 2021, published 2025) can be followed below.

The target in assay [1] is T1, ARF GTPase-activating protein GIT2 (Homo sapiens, UniProt Q14161).
T1 construct: Protein extracts from human fibroblasts were incubated with magnetic beads; endogenous in cells; host or cells: human fibroblast lysate
T1 sequence (Q14161 1-759): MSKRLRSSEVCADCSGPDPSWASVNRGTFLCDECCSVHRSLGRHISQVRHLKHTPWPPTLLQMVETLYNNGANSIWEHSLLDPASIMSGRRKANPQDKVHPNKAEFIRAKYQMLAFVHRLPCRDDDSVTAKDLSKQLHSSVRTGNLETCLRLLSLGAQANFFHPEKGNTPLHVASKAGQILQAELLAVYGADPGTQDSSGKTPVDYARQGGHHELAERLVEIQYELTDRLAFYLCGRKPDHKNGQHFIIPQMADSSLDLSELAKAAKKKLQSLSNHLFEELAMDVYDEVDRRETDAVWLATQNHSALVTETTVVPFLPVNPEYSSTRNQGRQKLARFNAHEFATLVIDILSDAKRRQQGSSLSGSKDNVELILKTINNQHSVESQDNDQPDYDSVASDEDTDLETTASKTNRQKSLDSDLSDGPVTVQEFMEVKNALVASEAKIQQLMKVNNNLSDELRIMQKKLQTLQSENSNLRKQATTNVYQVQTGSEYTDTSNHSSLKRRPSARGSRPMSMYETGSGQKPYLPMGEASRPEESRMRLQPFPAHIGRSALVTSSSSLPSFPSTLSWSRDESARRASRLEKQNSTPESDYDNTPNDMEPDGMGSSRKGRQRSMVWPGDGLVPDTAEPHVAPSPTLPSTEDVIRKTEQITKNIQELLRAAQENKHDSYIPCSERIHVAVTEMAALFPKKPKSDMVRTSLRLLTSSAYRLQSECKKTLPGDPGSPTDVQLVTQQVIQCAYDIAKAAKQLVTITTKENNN
Nature of the assay: Affinity chromatography with NFX-beads and mass spectrometry. The class given is binding. The following applies: spectral counts, NFX coupled beads vs beads alone, human fibroblast extracts. Here is the method:
(§1) Fibroblasts were trypsinized and washed with PBS 1× then incubated in lysis buffer on ice during 20 minutes (Lysis buffer: Tris-HCl pH 7.5 50 mM, EDTA 2 mM, Triton X-100 0.1% supplemented with anti-protease and anti-phosphatase (Complete-Mini™—Roche). After centrifugation 15 minutes, 13 000 rpm at 4° C., supernatant was conserved and the protein concentration was determined using the Pierce BCA assay kit (Thermo Fisher Scientific).
(§2) 10 μL of magnetic beads and NFX-beads were washed three times in Bead buffer before to be resuspended 100 μL of Bead buffer (Bead buffer: Tris-HCl pH 7.5 50 mM, NaCl 150 mM, Triton X-100 0.1%, supplemented with anti-protease and anti-phosphatase (Complete-Mini™—Roche)) thanks to a magnetic rack (DynaMag-2 Ref 12321D Life Technologies). 800 μg of proteins were mixed with 100 μL of diluted beads and the final volume was set to 800 μL with Bead buffer. The proteins and the beads were incubated 30 minutes with rotation in a cold room. Using a magnetic rack, the beads were separated from the protein extract and washed three time with Bead buffer before to be resuspended in 75 μL of Laemmli2X. Laemmli with beads was put 5 minutes at 95° C. to eluate the proteins and the beads were discarded using a magnetic rack. 35 μL of the eluted proteins were subjected to SDS-PAGE and silver coloration (ProteoSilver™ Silver Stain Kit—Sigma Aldrich). Bands of interest were extracted from the gel and subjected to mass spectrometry.
(§3) Mass spectrometric identification and quantification of the pulled down proteins were performed as previously described (Shrivastava et al., EMBO, 2019, 38:e99871). The raw data were cleaned using the following pathway. First, only the proteins found to interact with the NFX coupled beads in the three replicates were kept for further analysis. […] The final proteins were then classified based on the fold chance and the p-value.
(§4) Identification of the NFX intracellular targets is a crucial step in understanding its mechanisms of action and to be able to improve its efficiency on a rational basis. To purify NFX-binding proteins, affinity chromatography purification was performed using magnetic beads. Protein extracts from human fibroblasts were incubated with magnetic beads alone or to which NFX has been covalently coupled (Scheme 1). Eluted fractions were subjected to SDS-PAGE electrophoresis and silver staining (FIG. 9A). The pattern was clearly different between eluted proteins from NFX-beads compared to those eluted form beads alone with 13 bands either appeared or were of a higher intensity with the NFX-beads (FIG. 9B). Excised bands were subjected to proteolytic digestion and mass spectrometry.

The target of assay [2] is T2, Vigilin (HDLBP) (Homo sapiens, UniProt Q00341).
T2 construct: Protein extracts from human fibroblasts were incubated with magnetic beads; endogenous in cells; host or cells: human fibroblast lysate
T2 sequence (Q00341 1-1268): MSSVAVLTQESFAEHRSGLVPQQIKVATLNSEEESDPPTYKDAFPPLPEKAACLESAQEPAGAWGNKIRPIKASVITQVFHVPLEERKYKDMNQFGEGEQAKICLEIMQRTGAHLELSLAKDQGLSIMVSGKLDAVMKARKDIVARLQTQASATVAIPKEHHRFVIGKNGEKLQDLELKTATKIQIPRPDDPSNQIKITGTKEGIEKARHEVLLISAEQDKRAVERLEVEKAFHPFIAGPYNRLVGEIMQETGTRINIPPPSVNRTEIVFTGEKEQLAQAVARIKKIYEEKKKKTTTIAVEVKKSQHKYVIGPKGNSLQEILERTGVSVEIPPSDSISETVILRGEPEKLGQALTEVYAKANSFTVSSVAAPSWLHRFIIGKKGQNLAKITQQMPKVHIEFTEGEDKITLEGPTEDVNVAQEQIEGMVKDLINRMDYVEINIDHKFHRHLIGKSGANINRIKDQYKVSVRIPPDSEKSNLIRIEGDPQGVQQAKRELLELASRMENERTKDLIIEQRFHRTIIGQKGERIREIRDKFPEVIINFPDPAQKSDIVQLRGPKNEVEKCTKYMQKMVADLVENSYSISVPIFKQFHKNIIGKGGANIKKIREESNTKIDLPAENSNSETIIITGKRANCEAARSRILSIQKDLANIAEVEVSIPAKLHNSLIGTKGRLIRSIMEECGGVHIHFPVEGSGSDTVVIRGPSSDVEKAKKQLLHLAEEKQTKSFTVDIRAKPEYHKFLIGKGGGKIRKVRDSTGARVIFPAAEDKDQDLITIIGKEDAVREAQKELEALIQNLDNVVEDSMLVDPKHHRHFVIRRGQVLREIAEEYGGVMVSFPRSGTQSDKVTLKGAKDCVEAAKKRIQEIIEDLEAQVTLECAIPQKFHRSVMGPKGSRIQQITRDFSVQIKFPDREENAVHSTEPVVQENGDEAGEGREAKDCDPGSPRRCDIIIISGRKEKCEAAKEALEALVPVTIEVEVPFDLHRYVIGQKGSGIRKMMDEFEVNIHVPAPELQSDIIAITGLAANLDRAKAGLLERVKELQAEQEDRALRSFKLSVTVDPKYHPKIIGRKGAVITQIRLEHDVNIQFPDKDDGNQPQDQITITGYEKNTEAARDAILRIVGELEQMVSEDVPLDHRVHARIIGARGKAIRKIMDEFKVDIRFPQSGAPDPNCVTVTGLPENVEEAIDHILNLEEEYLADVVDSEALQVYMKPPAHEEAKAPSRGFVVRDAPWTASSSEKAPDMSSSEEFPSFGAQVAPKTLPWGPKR
The assay is described as above. Type of assay: binding. The following applies: spectral counts, NFX coupled beads vs beads alone, human fibroblast extracts. Here is the method: as §1, §2, §3, §4

As for `O=C(N/N=C/c1ccc([N+](=O)[O-])o1)c1ccc(O)cc1` [NFX, (E)-4-hydroxy-N′-((5-nitrofuran-2-yl)methylene)benzohydrazide], the Fold change in assay [1] was determined as 433.33; in assay [2], 77.14.
